Laboratory results published in patent US11771737B2, “Treating or preventing adverse liver conditions” (priority 2017, dated 2023).

Assays:
A20 tumor cells = test: Tail vein A20 tumor cell injection, liver metastasis; assay type: in vivo, BALB/c mice; conditions: A20 tumor-bearing antibiotic (vancomycin)-administered mice, ω-MCA feeding
Text: Liver metastases were counted three weeks after injection. Cumulative data are shown. n=8, p<0.05, Student's t-test.
FIG. 7B is a dot plot showing liver weight of liver sections in mice that received tail vein injection of A20 tumor cells. n=4, p<0.05, Student's t-test.
(§1) B16-F1 and A20 cells were purchased from ATCC (Manassas, Va., USA). EL4 cells were used as described (Ma et al., J. Leukoc. Biol., 92: 1199-1206 (2012), incorporated by reference herein). 1×10^6 EL4 tumor cells were given by subcutaneous (s.c.) or tail vein injection, 3×10^5 B16-F1 tumor cells were given by intrasplenic injection as described before (Eggert et al., Cancer Cell, 30: 533-547 (2016), incorporated by reference herein), and 1×10^6 A20 tumor cells were given by tail vein injection.
Mice were kept on ABX cocktail and fresh ABX was replaced every other day. Mice were fed with bile acids by oral gavage 48, 24 and 16 hrs prior to sacrifice. For A20 tumor bearing mice, ω-MCA were given 3 times/week. ω-MCA and CDCA were dissolved in corn oil and given at the dose of 6 mg/15 g body weight.
A20 tumor cells were i.v. injected into vancomycin-(Vanco) or H2O-administered BALB/c mice. ω-MCA (5 mg/mouse) was given by oral gavage three times/week. aCD4 antibody (GK1.5) was given i.p. at the dose of 500 μg/mouse weekly to deplete […] cells. FIGS. 30A and 30B show the results after 3 weeks.

hepatic NKT cells = test: In vivo bile acids feeding, hepatic NKT cell levels; conditions: ABX-administered mice, oral gavage 6 mg/15 g body weight at 48, 24 and 16 hrs
CXCL16 = CXCL16 mRNA in primary murine LSECs administered bile acids; assay type: cell-based, mice; conditions: primary murine LSECs in vitro, 24 hours
Text: FIG. 28E is a dot plot showing CXCL16 mRNA levels of isolated LSECs administered different bile acids, in accordance with embodiments of the invention. n=5, p<0.05, one-way ANOVA.
FIG. 28F is a dot plot showing CXCL16 mRNA levels of isolated LSECs administered a combination of T-b-MCA with T-w-MCA or ω-MCA. n=5, p<0.05, one-way ANOVA.
Primary mice liver sinusoidal endothelia cells were isolated as previously described (Limmer et al., Nat. Med., 6: 1348-1354 (2000), incorporated by reference herein). Briefly, mice were CO2 euthanized, and then the portal vein was cannulated, and the liver was perfused with 0.05% collagenase in Ca^2+ deprived medium. Liver cells were dissociated, and parenchymal cells were killed by incubation in 0.04% collagenase in Gey's balanced salt solution at 37° C. for 15 minutes. Then density gradient centrifugation was performed using Nycodenz solution at the final solution of 1.089 g/cm^3. Liver sinusoidal endothelial cells (LSEC) were isolated using anti-LSEC microbeads (Miltenyi, Bergisch Gladbach, Germany) according to the manufacturer's instructions. LSECs or the human SK-HEP1 cell line (ATCC, HTB-52) were administered different bile acids for 24 hours. Gene expression was analyzed by real-time PCR. […]

EL4 tumor cells = test: Tail vein EL4 tumor cell injection, liver tumors in wild-type, CXCR6 and CD1d knockout mice; assay type: in vivo; conditions: ABX-administered CXCR6−/− mice
Text: Measurements were taken 3 weeks after injection. Cumulative data are shown. n=10 for Wt-H2O, 7 for Wt-ABX, 4 for CXCR6^−/−-H2O, 5 for CXCR6^−/−-ABX, 5 for CD1d^−/−-H2O, 4 for CD1d^−/−-ABX. p<0.05, two-way ANOVA.
as §1
NKT cells are known to have anti-tumor function and can directly kill CD1d expressing tumors. All three tested tumor models (B16, EL4 and A20) expressed […] at different levels (FIG. 22). To investigate the role of NKT cells in this setting, CD1d knockout and CXCR6 knockout mice were used. CD1d knockout mice completely lack NKT cells, while CXCR6 knockout mice have a selective NKT deficiency in the liver. Loss of hepatic NKT cells in these mice was confirmed (FIG. 23). […]
EL4 tumor cells were injected into ABX-pre-administered CXCR6^−/− mice. ω-MCA was given as described above. Liver surface tumors were counted three weeks after tumor injection.

## C[C@H](CCC(=O)O)[C@H]1CC[C@H]2[C@@H]3[C@@H](O)[C@H](O)[C@@H]4C[C@H](O)CC[C@]4(C)[C@H]3CC[C@]12C [ω-MCA, ω-muricholic acid]
A20 tumor cells
  liver tumor growth: reversed the inhibition of liver tumor growth
Hepatic NKT cells
  hepatic NKT accumulation: effectively reversed hepatic NKT accumulation
CXCL16
  cxcl16 mRNA expression: decreased
EL4 tumor cells
  liver tumor development: failed to affect
